Kd data for 21 compounds are collected here from patent publication US20240190849A1, “AMINOPYRIMIDINE COMPOUNDS AND METHODS OF THEIR USE” (TYRA BIOSCIENCES, INC., priority 2021, published 2024).

Where only a bound is given, the exact number is not on record here.

What all share (settings): FGFR binding data
The target in one experiment is T1, FGFR1 (Homo sapiens, UniProt P11362).
T1 construct: made in house; host or cells: E. coli derived from BL21, infected with T7 phage
The experiment is described as follows: Kinase binding assay (kinase-tagged T7 phage, affinity beads, qPCR readout), FGFR1. The protocol:
(§1) Kinase-tagged T7 phage strains were prepared in an E. coli host derived from the BL21 strain. E. coli were grown to log-phase and infected with T7 phage and incubated with shaking at 32° C. until lysis. The lysates were centrifuged and filtered to remove cell debris. Streptavidin-coated magnetic beads were treated with biotinylated small molecule ligands for 30 minutes at room temperature to generate affinity resins for kinase assays. The liganded beads were blocked with excess biotin and washed with blocking buffer SeaBlock (Pierce), 1% BSA, 0.05% Tween 20, 1 mM DTT to remove unbound ligand and to reduce non-specific binding. Binding reactions were assembled by combining kinases, liganded affinity beads, and test compounds in 1× binding buffer (20% SeaBlock, 0.17×PBS, 0.05% Tween 20, 6 mM DTT).
(§2) Test compounds were prepared as 111× stocks in 100% DMSO. Kds were determined using an 11-point 3-fold compound dilution series with three DMSO control points. All compounds for Kd measurements are distributed by acoustic transfer (non-contact dispensing) in 100% DMSO. The compounds were then diluted directly into the assays such that the final concentration of DMSO was 0.9%. All reactions performed in polypropylene 384-well plate. Each was a final volume of 0.02 ml. The assay plates were incubated at room temperature with shaking for 1 hour and the affinity beads were washed with wash buffer (1×PBS, 0.05% Tween 20). The beads were then re-suspended in elution buffer (1×PBS, 0.05% Tween 20, 0.5 μM non-biotinylated affinity ligand) and incubated at room temperature with shaking for 30 minutes. The kinase concentration in the eluates was measured by qPCR.
(§3) Binding constants were calculated with a standard dose-response curve using the Hill equation: […]
(§4) The Hill Slope was set to −1. Curves were fitted using a non-linear least square fit with the Levenberg-Marquardt algorithm.
Background: In qPCR the cycle at which signal appears reflects the starting amount.

The next experiment addresses T2, FGFR2 (Homo sapiens, UniProt P21802).
T2 construct: made in house; host or cells: E. coli derived from BL21, infected with T7 phage
In words: Kinase binding assay (kinase-tagged T7 phage, affinity beads, qPCR readout), FGFR2. The protocol:
as §1, §2, §3, §4

In the next experiment the target is T3, FGFR3 (Homo sapiens, UniProt P22607).
T3 construct: made in house; host or cells: E. coli derived from BL21, infected with T7 phage
T3 sequence (P22607 23-806): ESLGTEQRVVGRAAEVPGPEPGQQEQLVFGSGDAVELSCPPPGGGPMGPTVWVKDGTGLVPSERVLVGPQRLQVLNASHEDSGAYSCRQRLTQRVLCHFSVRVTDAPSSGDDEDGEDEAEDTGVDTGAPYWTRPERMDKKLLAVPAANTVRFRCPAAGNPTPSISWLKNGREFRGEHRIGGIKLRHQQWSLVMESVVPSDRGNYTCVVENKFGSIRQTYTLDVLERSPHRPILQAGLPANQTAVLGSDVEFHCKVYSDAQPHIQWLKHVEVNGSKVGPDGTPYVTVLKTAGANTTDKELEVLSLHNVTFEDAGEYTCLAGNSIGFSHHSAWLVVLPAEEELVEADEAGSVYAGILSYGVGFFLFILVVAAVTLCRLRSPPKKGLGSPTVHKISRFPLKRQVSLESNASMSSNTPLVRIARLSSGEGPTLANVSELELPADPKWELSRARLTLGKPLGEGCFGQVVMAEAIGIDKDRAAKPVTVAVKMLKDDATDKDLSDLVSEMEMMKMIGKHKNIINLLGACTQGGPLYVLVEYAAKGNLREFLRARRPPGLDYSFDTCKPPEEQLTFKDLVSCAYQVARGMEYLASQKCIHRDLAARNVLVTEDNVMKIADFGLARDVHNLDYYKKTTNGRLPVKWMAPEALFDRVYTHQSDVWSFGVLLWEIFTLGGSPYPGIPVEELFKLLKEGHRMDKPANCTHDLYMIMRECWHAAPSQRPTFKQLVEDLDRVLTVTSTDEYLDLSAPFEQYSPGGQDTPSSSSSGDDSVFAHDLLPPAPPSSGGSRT
In words: Kinase binding assay (kinase-tagged T7 phage, affinity beads, qPCR readout), FGFR3. On the procedure:
as §1, §2, §3, §4

For a further experiment, the target named is T4, FGFR3 (V555M) (Homo sapiens, UniProt P22607, V555M).
T4 construct: made in house; host or cells: E. coli derived from BL21, infected with T7 phage
T4 sequence (P22607 23-806 V555M): as the sequence (P22607 23-806) above, with V533M counted along it
The experiment is described as follows: Kinase binding assay (kinase-tagged T7 phage, affinity beads, qPCR readout), FGFR3 (V555M). The protocol:
as §1, §2, §3, §4

T2 sequence (P21802 22-821): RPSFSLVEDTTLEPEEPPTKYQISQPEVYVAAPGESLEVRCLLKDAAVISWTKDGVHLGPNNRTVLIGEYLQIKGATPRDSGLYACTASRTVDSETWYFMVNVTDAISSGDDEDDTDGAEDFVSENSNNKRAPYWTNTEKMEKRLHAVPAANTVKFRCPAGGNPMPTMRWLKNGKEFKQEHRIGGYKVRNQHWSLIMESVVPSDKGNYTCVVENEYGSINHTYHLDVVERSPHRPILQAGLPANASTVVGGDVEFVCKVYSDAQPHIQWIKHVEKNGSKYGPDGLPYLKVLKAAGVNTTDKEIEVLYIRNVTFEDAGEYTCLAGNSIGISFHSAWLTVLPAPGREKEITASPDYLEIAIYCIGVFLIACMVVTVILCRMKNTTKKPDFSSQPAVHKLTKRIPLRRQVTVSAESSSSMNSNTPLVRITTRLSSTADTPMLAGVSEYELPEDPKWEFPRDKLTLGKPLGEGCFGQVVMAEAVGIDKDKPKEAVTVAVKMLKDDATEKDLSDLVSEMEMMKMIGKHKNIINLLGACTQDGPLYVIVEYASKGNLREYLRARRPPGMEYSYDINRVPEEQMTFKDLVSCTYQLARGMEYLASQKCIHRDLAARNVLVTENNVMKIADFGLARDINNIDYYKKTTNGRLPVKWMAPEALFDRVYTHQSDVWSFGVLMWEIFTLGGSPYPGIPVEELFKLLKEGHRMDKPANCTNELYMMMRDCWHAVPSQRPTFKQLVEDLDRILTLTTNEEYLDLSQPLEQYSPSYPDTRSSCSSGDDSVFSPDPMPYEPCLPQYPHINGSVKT
T1 sequence (P11362 22-822): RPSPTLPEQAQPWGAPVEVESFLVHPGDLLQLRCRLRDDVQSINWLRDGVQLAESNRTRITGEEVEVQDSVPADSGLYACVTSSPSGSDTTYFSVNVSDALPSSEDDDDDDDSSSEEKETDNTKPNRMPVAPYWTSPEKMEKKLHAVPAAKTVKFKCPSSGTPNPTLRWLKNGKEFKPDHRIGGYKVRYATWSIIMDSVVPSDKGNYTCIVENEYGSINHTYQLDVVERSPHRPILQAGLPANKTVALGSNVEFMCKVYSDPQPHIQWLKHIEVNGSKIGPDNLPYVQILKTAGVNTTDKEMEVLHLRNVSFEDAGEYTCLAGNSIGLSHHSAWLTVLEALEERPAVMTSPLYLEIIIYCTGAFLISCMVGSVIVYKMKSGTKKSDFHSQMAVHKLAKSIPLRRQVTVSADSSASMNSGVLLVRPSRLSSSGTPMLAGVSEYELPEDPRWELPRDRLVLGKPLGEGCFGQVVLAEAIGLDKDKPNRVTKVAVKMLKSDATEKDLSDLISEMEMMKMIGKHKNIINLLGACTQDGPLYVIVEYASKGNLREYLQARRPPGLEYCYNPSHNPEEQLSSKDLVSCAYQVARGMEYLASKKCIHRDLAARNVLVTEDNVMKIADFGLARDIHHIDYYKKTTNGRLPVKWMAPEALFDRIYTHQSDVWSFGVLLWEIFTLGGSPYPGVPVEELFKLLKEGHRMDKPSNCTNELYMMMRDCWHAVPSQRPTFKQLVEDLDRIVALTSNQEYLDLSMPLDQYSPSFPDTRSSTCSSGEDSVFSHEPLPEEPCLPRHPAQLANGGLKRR

In the case of `C=CC(=O)Nc1ccc2c(-c3nc(Nc4ccc(N5CCN(C)CC5)c(OC)c4)ncc3Cl)cn(C)c2c1` [Example 48, N-[3-[5-chloro-2-[3-methoxy-4-(4-methylpiperazin-1-yl)anilino]-pyrimidin-4-yl]-1-methyl-indol-6-yl]prop-2-enamide], the Kd on FGFR1, on FGFR2, at FGFR3 and at FGFR3 (V555M) was 0.1 to 100 nM in each case.

As for `C=CC(=O)Nc1ccc2c(-c3nc(Nc4ccc(N5CCOCC5)c(OC)c4)ncc3Cl)cn(C)c2c1` [Example 51, N-[3-[5-chloro-2-(3-methoxy-4-morpholino-anilino)pyrimidin-4-yl]-1-methyl-indol-6-yl]prop-2-enamide], the Kd on FGFR1, at FGFR2, on FGFR3 and on FGFR3 (V555M) was 0.1 to 100 nM each time.

Regarding `C=CC(=O)Nc1ccc2c(-c3nc(Nc4ccc(N5CCOCC5)cc4)ncc3C)cn(C)c2c1` [Example 52, N-[1-Methyl-3-[5-methyl-2-(4-morpholinoanilino)pyrimidin-4-yl]indol-6-yl]prop-2-enamide], the dissociation constant Kd on FGFR1, at FGFR2, on FGFR3 and at FGFR3 (V555M) was 0.1 to 100 nM throughout.

For `C=CC(=O)Nc1ccc2c(c1)c(C)cn2-c1nc(Nc2cc(C)nn2C)ncc1Cl` [Example 56, N-[1-[5-chloro-2-[(2,5-dimethylpyrazol-3-yl)amino]-pyrimidin-4-yl]-3-methyl-indol-5-yl]prop-2-enamide], the dissociation constant Kd (usually the equilibrium constant for the complex coming apart) at FGFR1 lay in the range of 100 to 250 nM; at FGFR2 it was 0.1 to 100 nM; at FGFR3, 0.1 to 100 nM; at FGFR3 (V555M) it was 0.1 to 100 nM.

Regarding `C=CC(=O)Nc1ccc2c(-c3nc(Nc4ccc(N(C)CCN(C)C)c(OC)c4)ncc3Cl)cn(C)c2c1` [Example 58, N-[3-[5-chloro-2-[4-[2-(dimethylamino)ethyl-methyl-amino]-3-methoxy-anilino]-pyrimidin-4-yl]-1-methyl-indol-6-yl]prop-2-enamide], the Kd on FGFR1, on FGFR2, at FGFR3 and at FGFR3 (V555M) was 0.1 to 100 nM throughout.

As for `C=CC(=O)Nc1ccc2c(-c3nc(Nc4ccc(N5CCN(C)CC5)nc4)ncc3Cl)cn(C)c2c1` [Example 59, N-[3-[5-chloro-2-[[6-(4-methylpiperazin-1-yl)-3-pyridyl]amino]pyrimidin-4-yl]-1-methyl-indol-6-yl]prop-2-enamide], the Kd on FGFR1, at FGFR2, at FGFR3 and on FGFR3 (V555M) was 0.1 to 100 nM throughout.

With `C=CC(=O)Nc1cc2c(C)cn(-c3nc(Nc4ccc(N5CCOCC5)cc4)ncc3Cl)c2cc1C` [Example 60, N-[1-[5-chloro-2-(4-morpholinoanilino)-pyrimidin-4-yl]-3,6-dimethyl-indol-5-yl]prop-2-enamide], the Kd at FGFR1 is greater than 1000 nM; at FGFR2 it was greater than 1000 nM; at FGFR3, greater than 1000 nM; on FGFR3 (V555M) it was 100 to 250 nM.

As to `C=CC(=O)Nc1ccc2c(-c3nc(Nc4ccnn4C)ncc3Cl)cn(C)c2c1` [Example 62, N-[3-[5-chloro-2-[(2-methylpyrazol-3-yl)amino]pyrimidin-4-yl]-1-methyl-indol-6-yl]prop-2-enamide], the Kd on FGFR1 lay within 250 to 1000 nM; at FGFR2, 0.1 to 100 nM; at FGFR3, 0.1 to 100 nM; at FGFR3 (V555M) it was 0.1 to 100 nM.

In the case of `C=CC(=O)Nc1ccc2c(-c3nc(Nc4cc(C)nn4C)ncc3Cl)cn(C)c2c1` [Example 63, N-[3-[5-chloro-2-[(2,5-dimethylpyrazol-3-yl)amino]-pyrimidin-4-yl]-1-methyl-indol-6-yl]prop-2-enamide], the Kd on FGFR1 lay within 250 to 1000 nM; on FGFR2, 0.1 to 100 nM; on FGFR3 it was 0.1 to 100 nM; on FGFR3 (V555M), 0.1 to 100 nM.

Take `C=CC(=O)Nc1ccc2c(c1)c(C)cn2-c1nc(Nc2ccc(CN3CCN(C)CC3)cc2)ncc1Cl` [Example 65, N-[1-[5-chloro-2-[4-[(4-methylpiperazin-1-yl)methyl]-anilino]pyrimidin-4-yl]-3-methyl-indol-5-yl]prop-2-enamide]: the Kd at FGFR1, on FGFR2, on FGFR3 and at FGFR3 (V555M) was 0.1 to 100 nM throughout.

For `C=CC(=O)Nc1ccc2c(c1)c(C)cn2-c1nc(Nc2ccc(CN3CCOCC3)c(C)c2)ncc1Cl` [Example 66, N-[1-[5-chloro-2-[3-methyl-4-(morpholinomethyl)anilino]pyrimidin-4-yl]-3-methyl-indol-5-yl]prop-2-enamide], the Kd at FGFR1, at FGFR2, on FGFR3 and on FGFR3 (V555M) was 0.1 to 100 nM throughout.

For `C=CC(=O)Nc1cc(C)c2c(c1)c(C)cn2-c1nc(Nc2cnn(C)c2)ncc1Cl` [Example 71, N-[1-[5-chloro-2-[(1-methylpyrazol-4-yl)amino]pyrimidin-4-yl]-3,7-dimethyl-indol-5-yl]prop-2-enamide], the dissociation constant (Kd) on FGFR1, at FGFR2, at FGFR3 and on FGFR3 (V555M) was greater than 1000 nM in each case.

Consider `C=CC(=O)Nc1ccc2c(c1)c(C)cn2-c1nc(Nc2cnnn2C)ncc1Cl` [Example 72, N-[1-[5-chloro-2-[(3-methyltriazol-4-yl)amino]pyrimidin-4-yl]-3-methyl-indol-5-yl]prop-2-enamide], for which the Kd on FGFR1, on FGFR2, at FGFR3 and at FGFR3 (V555M) was 0.1 to 100 nM in each case.

In the case of `C=CC(=O)Nc1ccc2c(c1)c(C)cn2-c1nc(Nc2cccc(N3CCN(C)CC3)c2)ncc1Cl` [Example 73, N-[1-[5-chloro-2-[3-(4-methylpiperazin-1-yl)anilino]-pyrimidin-4-yl]-3-methyl-indol-5-yl]prop-2-enamide], the Kd on FGFR1, on FGFR2, at FGFR3 and at FGFR3 (V555M) was 0.1 to 100 nM throughout.

Consider `C=CC(=O)Nc1cc(C)c2c(c1)c(C)cn2-c1nc(Nc2ccc(N3CCOCC3)cc2)ncc1Cl` [Example 74, N-[1-[5-chloro-2-(4-morpholinoanilino)pyrimidin-4-yl]-3,7-dimethyl-indol-5-yl]prop-2-enamide], for which the Kd on FGFR1, at FGFR2, at FGFR3 and at FGFR3 (V555M) was 0.1 to 100 nM in each case.

As to `C=CC(=O)Nc1ccc2c(c1)c(C)cn2-c1nc(Nc2ccc(CN3CCOCC3)cc2)ncc1Cl` [Example 75, N-[1-[5-chloro-2-[4-(morpholinomethyl)anilino]pyrimidin-4-yl]-3-methyl-indol-5-yl]prop-2-enamide], the Kd on FGFR1, at FGFR2, on FGFR3 and at FGFR3 (V555M) was 0.1 to 100 nM throughout.

Turning to `C=CC(=O)Nc1ccc2c(c1)c(C)cn2-c1ccnc(Nc2cnn(C)c2)n1` [Example 79, N-[3-methyl-1-[2-[(1-methylpyrazol-4-yl)amino]pyrimidin-4-yl]indol-5-yl]prop-2-enamide], the dissociation constant Kd at FGFR1, at FGFR2, at FGFR3 and on FGFR3 (V555M) was 0.1 to 100 nM in each case.

On to `C=CC(=O)Nc1ccc2c(c1)c(C)cn2-c1ccnc(Nc2ccnn2C)n1` [Example 82, N-[3-methyl-1-[2-[(2-methylpyrazol-3-yl)amino]pyrimidin-4-yl]indol-5-yl]prop-2-enamide], for which the Kd is 100 to 250 nM at FGFR1, 0.1 to 100 nM at FGFR2, 0.1 to 100 nM at FGFR3 and 0.1 to 100 nM on FGFR3 (V555M).

For the compound `C=CC(=O)Nc1cnc2c(c1)c(C)cn2-c1ccnc(Nc2ccnn2C)n1` [Example 83, N-[3-methyl-1-[2-[(2-methylpyrazol-3-yl)amino]pyrimidin-4-yl]pyrrolo[2,3-b]pyridin-5-yl]prop-2-enamide], the Kd at FGFR1, at FGFR2, at FGFR3 and on FGFR3 (V555M) was 0.1 to 100 nM each time.

As to `C=CC(=O)Nc1cc(C)c2c(c1)c(C)cn2-c1nc(Nc2cnn(C)c2)ncc1Cl` [Example 84, N-[1-[5-chloro-2-[(1-methylpyrazol-4-yl)amino]pyrimidin-4-yl]-3,7-dimethyl-indol-5-yl]prop-2-enamide], the Kd at FGFR1, on FGFR2, at FGFR3 and on FGFR3 (V555M) was 0.1 to 100 nM in each case.

Regarding `C=CC(=O)Nc1ccc2c(c1)c(C)cn2-c1nc(Nc2ccc(CN3CCN(C)CC3)c(F)c2)ncc1Cl` [Example 86, N-[1-[5-chloro-2-[3-fluoro-4-[(4-methylpiperazin-1-yl)methyl]-anilino]pyrimidin-4-yl]-3-methyl-indol-5-yl]prop-2-enamide], the dissociation constant (Kd) on FGFR1, on FGFR2, at FGFR3 and on FGFR3 (V555M) was 0.1 to 100 nM in each case.
